What was measured:
Type in all cases: in vivo
Lolium multiflorum [1] = assay: Herbicidal post-emergence action; conditions: post-emergence method, 80 g/ha
Procedure, shortened: (§1)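 Post-emergence spray test: wettable-powder formulations are applied at different amounts to one-leaf-stage plants in 600 l/ha water containing 0.2% wetting agent. After roughly three weeks in the greenhouse, percent effect is rated visually relative to untreated controls.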

Alopecurus myosuroides [2] = assay: Herbicidal post-emergence action; conditions: post-emergence method, 80 g/ha
Procedure, shortened: as §1

Echinocloa crus-galli [3] = assay: Herbicidal post-emergence action; conditions: post-emergence method, 80 g/ha
Procedure, shortened: as §1

Setaria viridis [4] = assay: Herbicidal post-emergence action; conditions: post-emergence method, 80 g/ha
Procedure, shortened: as §1

Lolium multiflorum [5] = assay: Herbicidal pre-emergence action; conditions: pre-emergence method, 80 g/ha, greenhouse, visual assessment vs untreated controls
Excerpt: (§2) Seeds of monocotylidonous and dicotylidonous weed and crop plants are placed in sandy loam in wood fibre pots and covered with soil. The test compounds, formulated in the form of wettable powders (WP), are then, as an aqueous suspension with a water application rate of 600 l/ha (converted), with 0.2% of wetting agent added, applied to the surface of the covering soil in different amounts.
(§3) After the treatment, the pots are placed in a greenhouse and kept under good growth conditions for the test plants. The visual assessment of the emergence damage on the test plants is carried out after a trial period of three weeks by comparison with the untreated controls (herbicidal effect in percent: 100% effect=the plants have died, 0% effect=like control plants).

Alopecurus myosuroides [6] = assay: Herbicidal pre-emergence action; conditions: pre-emergence method, 80 g/ha, greenhouse, visual assessment vs untreated controls
Excerpt: as §2, §3

Echinocloa crus-galli [7] = assay: Herbicidal pre-emergence action; conditions: pre-emergence method, 80 g/ha, greenhouse, visual assessment vs untreated controls
Excerpt: as §2, §3

Setaria viridis [8] = assay: Herbicidal pre-emergence action; conditions: pre-emergence method, 80 g/ha, greenhouse, visual assessment vs untreated controls
Excerpt: as §2, §3

[9] = tested on: monocotylidonous and dicotylidonous weed and crop plants; assay: Herbicidal pre-emergence action (other test plants); conditions: pre-emergence method, 80 g/ha, greenhouse, visual assessment vs untreated controls
Excerpt: as §2, §3

[10] = tested on: monocotylidonous and dicotylidonous weed and crop plants; assay: Herbicidal post-emergence action (other test plants); conditions: post-emergence method, 80 g/ha
Procedure, shortened: as §1

Compound	herbicidal effect against LOLMU (Lolium multiflorum) (Lolium multiflorum [1]) [%]	herbicidal effect against ALOMY (Alopecurus myosuroides) (Alopecurus myosuroides [2]) [%]	herbicidal effect against ECHCG (Echinochloa crus-galli) (Echinocloa crus-galli [3]) [%]	herbicidal effect against SETVI (Setaria viridis) (Setaria viridis [4]) [%]	herbicidal effect LOLMU (Lolium multiflorum [5]) [%]	herbicidal effect ALOMY (Alopecurus myosuroides [6]) [%]	herbicidal effect ECHCG (Echinocloa crus-galli [7]) [%]	herbicidal effect SETVI (Setaria viridis [8]) [%]	herbicidal effect AVEFA [9] [%]	herbicidal effect against AVEFA (Avena fatua) [10] [%]
CCc1cc(C)cc(CC)c1C1=C(O)C2CC3(COC(C)O3)CC2C1=O (mixture of isomers) [I-a-7]	100	90	100	90	90	100	70	70	80	60
CCc1cc(C)cc(CC)c1C1=C(O)C2CC3(CC2C1=O)OC(C)CC(C)O3 (mixture of isomers) [I-a-12]	100	100	100	100	100	100	100	90	80	100
CCc1cc(C)cc(CC)c1C1=C(O)C2CC3(CC2C1=O)OCCS3 (mixture of isomers) [I-a-35]	100	100	100	90	100	80	70	70	80	80
CCc1cc(C)cc(CC)c1C1=C(OC(=O)C(C)(C)C)C2CC3(CC2C1=O)OCCCS3 (mixture of isomers) [I-b-20]	60	0	100	0	100	100	80	90	90	30
CCc1cc(C)cc(CC)c1C1=C(OC(=O)C(C)C)C2CC3(CC2C1=O)OCCS3 (mixture of isomers) [I-b-21]	100	90	100	90	100	80	80	20	80	90
CCC(C)(C)C(=O)OC1=C(c2c(C)cc(C)cc2C)C(=O)C2CC3(COC(C)(C)O3)CC12 (mixture of isomers) [I-b-45]	90	80	90	40	60	90	20	30	40	0
Cc1cc(C)c(C2=C(OC(=O)C(C)C)C3CC4(COC(C)(C)O4)CC3C2=O)c(C)c1 (mixture of isomers) [I-b-46]	100	90	90	80	100	90	0	0	60	40
Cc1cc(C)c(C2=C(OC(=O)C(C)(C)C)C3CC4(COC(C)(C)O4)CC3C2=O)c(C)c1 (mixture of isomers) [I-b-48]	90	90	90	80	70	80	0	0	20	40
CC(=O)OC1=C(c2c(C)cc(C)cc2C)C(=O)C2CC3(COC(C)(C)O3)CC12 (mixture of isomers) [I-b-49]	100	90	100	60	70	90	50	0	70	80
Cc1cc(C)c(C2=C(OC(=O)C(C)(C)CCl)C3CC4(COC(C)(C)O4)CC3C2=O)c(C)c1 (mixture of isomers) [I-b-51]	60	90	100	40	70	80	30	0	30	0
CCOC(=O)OC1=C(c2c(CC)cc(C)cc2CC)C(=O)C2CC3(CC12)OCC(C)O3 (mixture of isomers) [I-c-8]	100	90	100	90	100	60	60	50	40	60
CCOC(=O)OC1=C(c2c(CC)cc(C)cc2CC)C(=O)C2CC3(CC12)OCCCS3 (mixture of isomers) [I-c-19]	100	100	100	100	90	100	50	90	70	100
CCOC(=O)OC1=C(c2c(CC)cc(C)cc2CC)C(=O)C2CC3(CC12)OCCS3 (mixture of isomers) [I-c-30]	100	80	100	70	100	100	80	60	90	40
CCc1cc(C)cc(CC)c1C1=C(OC(=O)OC)C2CC3(CC2C1=O)OCCS3 (mixture of isomers) [I-c-31]	100	70	100	90	0	90	60	60	80	90
CCc1cc(C)cc(CC)c1C1=C(OC(=O)OC)C2CC3(CC2C1=O)OCCCS3 (mixture of isomers) [I-c-32]	90	80	90	80	100	80	100	70	70	90
CCOC(=O)OC1=C(c2c(CC)cc(C)cc2CC)C(=O)C2CC3(CC12)OCC(C)(C)CO3 (racemic) [I-c-6]	–	–	–	–	80	50	90	60	10	–
CCOC(=O)OC1=C(c2c(C)cc(C)cc2CC)C(=O)C2CC3(CC12)OCCO3 (racemic) [I-c-71]	100	80	–	100	100	70	100	90	70	90
